# According to USRE49735E1 (BRISTOL-MYERS SQUIBB COMPANY, priority 2010, dated 2023):
# Where “and” joins values, the source holds several entries; their conditions need not be identical. Equal values may be shown once.
# Target: human mGluR5A (Homo sapiens, UniProt P41594)
# Assay: mGluR5 FLIPR Assay
# Assay type: cell-based
# Conditions: positive modulator activity; HEK293 (ZF) cells with human mGluR5A and rat GLAST; Ca++ response to ~EC10 glutamate
# Sequence of human mGluR5A (P41594 21-1180 isoform P41594-2): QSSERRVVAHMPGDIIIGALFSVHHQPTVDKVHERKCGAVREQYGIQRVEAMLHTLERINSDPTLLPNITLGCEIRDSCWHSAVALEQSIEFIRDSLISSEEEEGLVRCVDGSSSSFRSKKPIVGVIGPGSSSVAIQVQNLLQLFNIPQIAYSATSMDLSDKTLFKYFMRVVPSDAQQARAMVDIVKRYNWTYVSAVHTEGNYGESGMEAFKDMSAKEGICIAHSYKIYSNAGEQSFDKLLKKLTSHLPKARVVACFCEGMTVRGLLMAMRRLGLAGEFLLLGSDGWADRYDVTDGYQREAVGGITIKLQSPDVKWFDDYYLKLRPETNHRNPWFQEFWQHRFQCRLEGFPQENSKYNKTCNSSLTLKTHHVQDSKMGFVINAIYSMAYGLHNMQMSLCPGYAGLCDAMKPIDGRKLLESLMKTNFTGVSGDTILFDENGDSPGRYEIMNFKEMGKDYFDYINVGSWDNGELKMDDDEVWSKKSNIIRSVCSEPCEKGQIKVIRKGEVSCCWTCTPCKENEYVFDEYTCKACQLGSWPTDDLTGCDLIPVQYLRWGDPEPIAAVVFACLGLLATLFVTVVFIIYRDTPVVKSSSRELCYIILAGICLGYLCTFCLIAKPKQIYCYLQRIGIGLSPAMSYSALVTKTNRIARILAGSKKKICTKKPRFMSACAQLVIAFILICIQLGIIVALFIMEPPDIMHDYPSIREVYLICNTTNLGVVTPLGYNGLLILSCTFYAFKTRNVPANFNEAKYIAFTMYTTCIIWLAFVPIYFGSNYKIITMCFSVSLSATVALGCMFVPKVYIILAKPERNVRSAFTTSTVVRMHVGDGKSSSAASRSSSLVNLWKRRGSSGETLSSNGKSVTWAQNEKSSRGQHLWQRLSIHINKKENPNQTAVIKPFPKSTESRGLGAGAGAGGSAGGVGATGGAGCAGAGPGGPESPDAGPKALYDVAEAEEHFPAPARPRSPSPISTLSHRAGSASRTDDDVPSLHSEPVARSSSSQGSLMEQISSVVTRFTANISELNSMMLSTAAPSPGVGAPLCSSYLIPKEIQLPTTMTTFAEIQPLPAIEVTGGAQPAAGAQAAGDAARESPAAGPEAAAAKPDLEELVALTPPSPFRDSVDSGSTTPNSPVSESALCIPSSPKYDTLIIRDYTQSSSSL
row,Structure (SMILES),EC50
1,"O=C1N[C@@H](c2cccc(C#Cc3cccc(F)c3)n2)[C@H](c2ccccc2)O1 (single isomer, unassigned) [Example 13]",> 1 µM
2,O=C1N[C@@H](c2cncc(C#Cc3ccccn3)c2)[C@H](c2cc(F)cc(F)c2)O1 [Example 191],> 1 µM
3,"COc1cccc([C@H]2OC(=O)N[C@@H]2c2cccc(C#Cc3cnc4ccccc4c3)c2)c1 [Example 76, (4R,5R)-5-(3-Methoxyphenyl)-4-(3-(quinolin-3-ylethynyl)phenyl)oxazolidin-2-one]",> 30 µM
4,O=C1N[C@H](c2cncc(C#Cc3ccccn3)c2)[C@@H](c2ccc(F)cc2F)O1 [Example 183],< 0.1 µM
5,"CCOc1ncc(C#Cc2cccc([C@H]3NC(=O)O[C@@H]3c3cccc(OC)c3)c2)cn1 [Example 94, (4R,5R)-4-(3-((2-Ethoxypyrimidin-5-yl)ethynyl)phenyl)-5-(3-methoxyphenyl)oxazolidin-2-one]",> 1 µM
6,O=C1N[C@H](c2cccc(C#Cc3ccccc3)c2)[C@@H](c2cnccn2)O1 [Example 246],> 1 µM
7,"O=C1N[C@@H](c2cccc(C#Cc3ccccc3)c2)[C@H](c2ccccc2)O1 (single isomer, unassigned) [Example 96]",0.1 to 1 µM
8,C[C@@]1(c2ccc(F)cc2)OC(=O)N[C@H]1c1cncc(C#Cc2ccccc2)c1 [Example 204],< 0.1 µM
9,"O=C1N[C@@H](c2cc(C#Cc3ccccc3Cl)ccn2)[C@H](c2ccc(F)cc2)O1 (single isomer, unassigned) [Example 352]",> 1 µM
10,O=C1N[C@H](c2ccnc(C#Cc3cccc(F)c3)c2)[C@@H](c2cccnc2)O1 [Example 252],> 1 µM
11,"O=C1N[C@H](c2cc(C#Cc3cncc(F)c3)cnc2F)[C@@H](c2ccc(F)cc2)O1 [Example 143, (4R,5R)-4-(2-Fluoro-5-((5-fluoropyridin-3-yl)ethynyl)pyridin-3-yl)-5-(4-fluorophenyl)oxazolidin-2-one]",< 0.1 µM
12,"O=C1N[C@H](c2cc(C#Cc3cccnc3)cnc2F)[C@@H](c2ccc(F)cc2)O1 [Example 142, (4R,5R)-4-(2-Fluoro-5-(pyridin-3-ylethynyl)pyridin-3-yl)-5-(4-fluorophenyl)oxazolidin-2-one]",< 0.1 µM and 0.0037 µM
13,"Cc1cccc(C#Cc2cncc([C@H]3NC(=O)O[C@@H]3c3cc(F)ccc3F)c2)c1 [Example 387, (4R,5R)-5-(2,5-difluorophenyl)-4-(5-(m-tolylethynyl)pyridin-3-yl)oxazolidin-2-one]",> 1 µM
14,"O=C1N[C@@H](c2cncc(C#Cc3ccccc3)c2)[C@H](c2ccccc2Cl)O1 (single isomer, unassigned) [Example 363]",< 0.1 µM
15,"COc1cccc([C@H]2OC(=O)N[C@@H]2c2cccc(C#Cc3ccncn3)c2)c1 [Example 74, (4R,5R)-5-(3-Methoxyphenyl)-4-(3-(pyrimidin-4-ylethynyl)phenyl)oxazolidin-2-one]",> 30 µM
16,O=C1N[C@H](c2cncc(C#Cc3ccnc(F)c3)c2)[C@@H](c2ccc(F)cc2)O1 [Example 214],< 0.1 µM
17,"COc1cccc(C#Cc2cccc([C@H]3NC(=O)O[C@@H]3c3cccc(OC)c3)c2)c1 [Example 59, (4R,5R)-5-(3-Methoxyphenyl)-4-(3-((3-methoxyphenyl)ethynyl)phenyl)oxazolidin-2-one]",< 0.1 µM
18,"O=C1N[C@H](c2cc(C#Cc3ccc4nccnc4c3)cnc2F)[C@@H](c2ccc(F)cc2)O1 [Example 154, (4R,5R)-4-(2-fluoro-5-(quinoxalin-6-ylethynyl)pyridin-3-yl)-5-(4-fluorophenyl)oxazolidin-2-one]",> 1 µM
19,O=C1N[C@H](c2cc(C#Cc3ccccc3)ncn2)[C@@H](c2cccc(F)c2)O1 (racemic) [Example 271],> 1 µM
20,Cc1ccc([C@H]2OC(=O)N[C@@H]2c2cccc(C#Cc3ccccc3)c2)cc1 [Example 107],< 0.1 µM
21,"O=C1N[C@@H](c2cccc(C#Cc3ccccc3)c2)[C@H](c2ccc(F)cc2)O1 [Example 115, (4S,5S)-5-(4-fluorophenyl)-4-(3-(phenylethynyl)phenyl)oxazolidin-2-one]",> 1 µM
22,"O=C1N[C@@H](c2cncc(C#Cc3ccccc3)c2)[C@H](c2ncco2)O1 [Example 338, (4S,5R)-5-(oxazol-2-yl)-4-(5-(phenylethynyl)pyridin-3-yl)oxazolidin-2-one]",> 1 µM
23,COc1cccc([C@H]2OC(=O)N[C@@H]2c2cccc(C#Cc3ccc(SC)cc3)c2)c1 [Example 260],> 1 µM
24,O=C1N[C@H](c2cncc(C#Cc3ccccn3)c2)[C@@H](c2ccc(F)c(F)c2)O1 [Example 178],0.1 to 1 µM and 0.117 µM
25,O=C1N[C@H](c2cncc(C#Cc3cccnc3)c2)[C@@H](c2cc(F)cc(F)c2)O1 [Example 181],0.1 to 1 µM and 0.279 µM
26,"O=C1N[C@H](c2cc(C#Cc3cccnc3)cnc2F)[C@@H](c2cccc(F)c2)O1 [Example 139, (4R,5R)-4-(2-Fluoro-5-(pyridin-3-ylethynyl)pyridin-3-yl)-5-(3-fluorophenyl)oxazolidin-2-one]",< 0.1 µM
27,COc1cccc([C@H]2OC(=O)N[C@@H]2c2cccc(C#Cc3ccc(C(C)=O)cc3)c2)c1 [Example 261],> 1 µM

row,Structure (SMILES),EC50
1,"O=C1N[C@H](c2ccnc(C#Cc3cccnc3)c2)[C@@H](c2ccccc2)O1 [Example 23, (4R,5R)-5-Phenyl-4-(2-(pyridin-3-ylethynyl)pyridin-4-yl)oxazolidin-2-one]",< 0.1 µM
2,COC(=O)c1cccc(C#Cc2cccc([C@H]3NC(=O)O[C@@H]3c3cccc(OC)c3)c2)c1 [Example 267],0.1 to 1 µM
3,O=C1N[C@H](c2cncc(C#Cc3ccccc3)c2)[C@@H](c2cccc(F)c2F)O1 [Example 277],< 0.1 µM and 0.0215 µM
4,"COc1cccc([C@H]2OC(=O)N[C@@H]2c2cccc(C#Cc3cccc(F)c3)n2)c1 [Example 8, (4R,5R)-4-(6-((3-Fluorophenyl)ethynyl)pyridin-2-yl)-5-(3-methoxyphenyl)oxazolidin-2-one]",> 1 µM
5,"COc1cccc([C@H]2OC(=O)N[C@@H]2c2cccc(C#Cc3cccc(O)n3)c2)c1 [Example 77, (4R,5R)-4-(3-((6-Hydroxypyridin-2-yl)ethnyl)phenyl)-5-(3-methoxyphenyl)-oxazolidin-2-one]",> 1 µM
6,"O=C1N[C@H](c2cncc(C#Cc3ccccc3)c2)[C@@H](c2ccccc2)O1 (single isomer, unassigned) [Example 38]",> 1 µM
7,"O=C1N[C@H](c2cccc(C#Cc3ccccc3)c2)[C@@H](c2ccc(F)cc2)O1 (single isomer, unassigned) [Example 114]",< 0.1 µM
8,"O=C1N[C@H](c2cc(C#Cc3cncc(F)c3)cnc2F)[C@@H](c2cccc(F)c2)O1 [Example 140, (4R,5R)-4-(2-Fluoro-5-((5-fluoropyridin-3-yl)ethynyl)pyridin-3-yl)-5-(3-fluorophenyl)oxazolidin-2-one]",< 0.1 µM
9,"Cc1ccc(C#Cc2cncc([C@H]3NC(=O)O[C@@H]3c3cc(F)ccc3F)c2)cc1 [Example 381, (4R,5R)-5-(2,5-Difluorophenyl)-4-(5-(p-tolylethynyl)pyridin-3-yl)oxazolidin-2-one]",0.1 to 1 µM
10,"C[C@@]1(c2cccc(C#Cc3ccccc3)n2)NC(=O)O[C@@H]1c1ccccc1F (single isomer, unassigned) [Example 376]",0.1 to 1 µM
11,"O=C1N[C@@H](c2cc(C#Cc3cccc(F)c3)ccn2)[C@H](c2ccc(F)cc2)O1 (single isomer, unassigned) [Example 356]",0.1 to 1 µM
12,C[C@]1(c2cncc(C#Cc3ccccc3)c2)NC(=O)O[C@H]1c1ccccc1 [Example 226],< 0.1 µM
13,N#Cc1cccc(C#Cc2cncc([C@H]3NC(=O)O[C@@H]3c3cc(F)cc(F)c3)c2)c1 [Example 174],> 1 µM
14,"COc1cccc([C@H]2OC(=O)N[C@@H]2c2cccc(C#Cc3cccnc3Cl)c2)c1 [Example 85, (4R,5R)-4-(3-((2-Chloropyridin-3-yl)ethynyl)phenyl)-5-(3-methoxyphenyl)oxazolidin-2-one]",> 1 µM
15,O=C1N[C@H](c2cccc(C#Cc3ccccc3)c2)[C@@H](c2nc(-c3ccccc3)no2)O1 [Example 158],> 30 µM
16,O=C1N[C@H](c2cncc(C#Cc3ccc(F)cc3)c2)[C@@H](c2cc(F)ccc2F)O1 [Example 279],< 0.1 µM
17,O=C1N[C@H](c2cccc(C#Cc3ccccc3F)n2)[C@@H](c2ccccc2)O1 [Example 12],> 1 µM
18,COc1cccc([C@H]2OC(=O)N[C@@H]2c2cccc(C#Cc3cccc(Cl)c3)c2)c1 [Example 262],0.1 to 1 µM
19,"COc1cccc([C@H]2OC(=O)N[C@@H]2c2cccc(C#Cc3cnccc3Cl)c2)c1 [Example 84, (4R,5R)-4-(3-((4-Chloropyridin-3-yl)ethynyl)phenyl)-5-(3-methoxyphenyl)oxazolidin-2-one]",> 1 µM
20,"O=C1N[C@H](c2cc(C#Cc3cccc(F)c3)ccn2)[C@@H](c2ccc(F)cc2)O1 (single isomer, unassigned) [Example 355]",< 0.1 µM
21,"COc1cccc([C@H]2OC(=O)N[C@@H]2c2cccc(C#Cc3cnccc3C)c2)c1 [Example 88, (4R,5R)-5-(3-Methoxyphenyl)-4-(3-((4-methylpyridin-3-yl)ethynyl)phenyl)oxazolidin-2-one]",> 1 µM
22,"COc1cccc([C@H]2OC(=O)N[C@@H]2c2cccc(C#Cc3cccnc3C#N)c2)c1 [Example 53, 3-((3-((4R,5R)-5-(3-Methoxyphenyl)-2-oxooxazolidin-4-yl)phenyl)ethynyl)picolinonitrile]",> 1 µM
23,"Cc1ccc([C@@H]2OC(=O)N[C@H]2c2cccc(C#Cc3ccccc3)c2)cc1C (single isomer, unassigned) [Example 102]",> 1 µM
24,"COc1cccc([C@H]2OC(=O)N[C@@H]2c2cccc(C#Cc3cccc(C(F)(F)F)c3)c2)c1 [Example 129, (4R,5R)-5-(3-methoxyphenyl)-4-(3-((3-(trifluoromethyl)phenyl)ethynyl)phenyl)oxazolidin-2-one]",> 1 µM
25,O=C1N[C@@H](c2cncc(C#Cc3cncc(F)c3)c2)[C@H](c2cccnc2)O1 [Example 202],> 1 µM
26,"COc1ccccc1[C@H]1OC(=O)N[C@H]1c1cncc(C#Cc2ccccc2)c1 (single isomer, unassigned) [Example 336]",> 1 µM
